Consider 17 compounds from article PMC6185871, “Discovery of super soft-drug modulators of sphingosine-1-phosphate receptor 1” (Bioorganic & Medicinal Chemistry Letters, 2018).

Each structure is given as a SMILES string.

The target in one data set is T1, S1PR1 (Homo sapiens, UniProt P21453).
T1 construct: host or cells: CHO-K1 (PathHunter EDG1 β-Arrestin cell line)
Description: PathHunter CHO-K1 EDG1 β-Arrestin recruitment assay. The class given is cell-based. The protocol:
(§1) We selected human plasma stability as a model for human blood metabolism. […] S1PR1 activity was measured using a PathHunter β-Arrestin recruitment assay.[23]
[23] The PathHunter® CHO‐K1 EDG1 β‐Arrestin Cell Line (Discoverx) was used to assess agonist activity of the compounds. Briefly, compound at 5× desired concentration was added to cells and incubated at 37 °C for 90 min. Assay signal was generated through a single addition of PathHunter Detection reagent cocktail, followed by a one hour incubation at room temperature. Microplates were read following signal generation with a PerkinElmer Envision instrument for chemiluminescent signal detection. Percentage activity was calculated using the following formula: % Activity = 100% × (mean RLU of test sample − mean RLU of vehicle control)/(mean MAX control ligand − mean RLU of vehicle control).
(In general: Recruitment of arrestin is a read-out of receptor activation apart from second messengers.)

Data set [1] can be described thus: Kinetic aqueous solubility by laser nephelometry. The data set is classed as physicochemical.
Data set [2] in a line: Chromatographic hydrophobicity index (CHI) logD by reverse-phase HPLC. The data set is classed as physicochemical.
Another data set is described as follows: in vitro. The note with it: for half-life: human, plasma. The class given is in vitro ADME, human. The protocol: as §1
Another data set in a line: Human skin S9 stability. The note with it: human skin S9 fraction, skin S9 over 180 mins in the presence of enzymatic cofactors. The class given is in vitro ADME. The source says:
It may be that the esterases responsible for the metabolism of 12f are present in both human plasma and skin S9 fraction or that skin and plasma esterases have similar substrate affinities.

For a further data set, the system named is plaque psoriasis. Set-up: method as in PMID 25127208. The note with it: oral, phase II clinical trial of psoriasis; cited from earlier work.
The test system of data set [3] is Langerhans cells migrating to the lymph node. Set-up: method as in PMID 19194476. Conditions: mice, topical application; cited from earlier work.
Where [4] appears, read: PathHunter β-Arrestin, n of 2, geometric mean, range in brackets.

T1 sequence (P21453 whole entry): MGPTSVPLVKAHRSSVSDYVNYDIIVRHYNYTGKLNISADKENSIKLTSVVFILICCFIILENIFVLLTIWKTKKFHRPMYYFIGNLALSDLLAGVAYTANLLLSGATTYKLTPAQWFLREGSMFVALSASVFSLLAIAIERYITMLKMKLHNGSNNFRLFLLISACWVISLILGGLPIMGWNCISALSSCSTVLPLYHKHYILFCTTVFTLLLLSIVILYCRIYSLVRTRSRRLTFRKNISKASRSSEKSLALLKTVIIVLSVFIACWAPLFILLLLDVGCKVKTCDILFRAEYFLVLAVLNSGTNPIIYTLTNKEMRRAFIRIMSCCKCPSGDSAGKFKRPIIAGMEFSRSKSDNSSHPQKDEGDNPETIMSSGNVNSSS

`CCC/N=C1\S/C(=C\c2ccc(C(=O)O)cc2)C(=O)N1c1ccccc1C` [Compound 4a]: on S1PR1 (setting [4]), the “S1PR1 pIC50” value is recorded as <6 (0). The Kinetic solubility in data set [1] is 163 µM. Moreover, the “CHI logD” value in data set [2] was determined as 1.0.
For orientation: half-life means the time needed for the level to fall by half in the phase considered. `CCC/N=C1\S/C(=C\c2ccc(C(=O)OC)c(Cl)c2)C(=O)N1c1ccccc1C` [Compound 5a]: on S1PR1 (setting [4]), the “S1PR1 pIC50” value is 8.6 (0.1). Further, at S1PR1 (compared to 5b), the “improvement in S1PR1 activity compared to 5b” value was determined as 100 fold. This compound also showed a half-life in “in vitro” above 3 h. Further, the Kinetic solubility in data set [1] came out at 39 µM. Besides, the “CHI logD” value in data set [2] was above 4.4.
Consider `CCC/N=C1\S/C(=C\c2ccc(C(=O)OC)cc2)C(=O)N1c1ccccc1C` [Compound 5b], for which the “S1PR1 pIC50” value on S1PR1 (setting [4]) is listed as 6.5 (0). Further, in “in vitro”, the half-life was above 3 h. The same compound returned a Kinetic solubility in data set [1] of 28 µM. Also, the “CHI logD” value in data set [2] is above 4.4.
In the case of `CCC/N=C1\S/C(=C\c2ccc(C(=O)OCCO)cc2)C(=O)N1c1ccccc1C` [Compound 5c], the “S1PR1 pIC50” value on S1PR1 (setting [4]) is reported as 6.9 (0). The compound further returned a half-life in “in vitro” above 3 h. Moreover, in data set [2], the “CHI logD” value came out at 3.4.
With `CCC/N=C1\S/C(=C\c2ccc(C(=O)NCCO)cc2)C(=O)N1c1ccccc1C` [Compound 5d], the “S1PR1 pIC50” value at S1PR1 (setting [4]) is listed as 7.0 (0). Further, in the data set “in vitro”, the half-life is above 3 h. The Kinetic solubility in data set [1] is on record as above 250 µM. Also, in data set [2], the “CHI logD” value is given as 2.3.
On to `CCC/N=C1\S/C(=C\c2ccc(OC[C@H](O)CO)c(Cl)c2)C(=O)N1c1ccccc1O` [Compound 6], for which the IC50 at S1PR1 (PathHunter β-Arrestin, n of 2, geometric mean, range in brackets, read-out: S1PR1 pIC50 (converted)) is 12.6 nM.
Consider `CCC/N=C1\S/C(=C\c2ccc(C(=O)O)cc2)C(=O)N1c1ccccc1O` [Compound 11], for which the “S1PR1 modulator activity (in words)” value at S1PR1 was “inactive”. In the data set “in vitro”, this compound came in with a half-life above 3 h.
Regarding `CCC/N=C1\S/C(=C\c2ccc(C(=O)NCC(=O)N(C)C)cc2)C(=O)N1c1ccccc1O` [Compound 12a], in “in vitro”, the “metabolism in human plasma stability assay (in words)” value (from here on “metabolism”) was “lack of metabolism” and the half-life is above 3 h. Besides, the “CHI logD” value in data set [2] is given as 1.9.
Regarding `CCC/N=C1\S/C(=C\c2ccc(C(=O)OCCCO)cc2)C(=O)N1c1ccccc1O` [Compound 12b], the half-life in the data set “in vitro” was above 3 h. For the same compound, in data set [1], the Kinetic solubility was 183 µM. The “CHI logD” value in data set [2] is 2.3.
The matching figures for `CCC/N=C1\S/C(=C\c2ccc(C(=O)OCC(O)CO)cc2)C(=O)N1c1ccccc1O` (stereo not drawn) [Compound 12c]: above 3 h, above 250 µM and 1.8.
Take `CCC/N=C1\S/C(=C\c2ccc(C(=O)OCCN3CCOCC3)cc2)C(=O)N1c1ccccc1O` [Compound 12d]: in “Human skin S9 stability”, the half-life at 3 h amounted to 2.53 h. In the data set “in vitro”, this compound displayed a half-life of 3 h. This compound yielded a Kinetic solubility in data set [1] of 117 µM. Besides, the “CHI logD” value in data set [2] stood at 3.0.
As to `CCC/N=C1\S/C(=C\c2ccc(C(=O)OCC3COC(=O)O3)cc2)C(=O)N1c1ccccc1O` (stereo not drawn) [Compound 12e], the half-life at 3 h in the data set “Human skin S9 stability” worked out at 0.667 h. In the data set “in vitro”, the “metabolism” value is reported as “did not show sufficient clearance” and the half-life was 1.02 h. The same compound had a Kinetic solubility in data set [1] of 79 µM. Also, the “CHI logD” value in data set [2] worked out at 2.8.
In the case of `CCC/N=C1\S/C(=C\c2ccc(C(=O)OCc3oc(=O)oc3C)cc2)C(=O)N1c1ccccc1O` [Compound 12f], the “S1PR1 modulator activity (in words)” value on S1PR1 is “inactive”. In “Human skin S9 stability”, the half-life at 3 h was 0.383 h. Besides, in the data set “in vitro”, the “metabolism” value is on record as “rapidly degraded” and the half-life amounted to 0.15 h. The same compound displayed a Kinetic solubility in data set [1] of 79 µM. Moreover, the “CHI logD” value in data set [2] was found to be 3.3.
In “in vitro”, `CCC/N=C1\S/C(=C\c2ccc(CC(=O)OC)cc2)C(=O)N1c1ccccc1O` [Compound 15a] gave a half-life above 3 h. In addition, the “CHI logD” value in data set [2] was found to be 3.2.
As to `CCC/N=C1\S/C(=C\c2ccc(CCC(=O)OC)cc2)C(=O)N1c1ccccc1O` [Compound 15b], the half-life in the data set “in vitro” is above 3 h. This compound also came in with a Kinetic solubility in data set [1] of 79 µM. Also, the “CHI logD” value in data set [2] stood at 3.5.
`CCC/N=C1\S/C(=C\c2ccc(OC[C@H](O)CO)c(Cl)c2)C(=O)N1c1ccccc1C` [Ponesimod, ponesimod, reference compound]: the “S1PR1 pIC50” value at S1PR1 (setting [4]) was 7.9 (0). Further, in the data set “in vitro”, the half-life is above 3 h. Besides, in data set [1], the Kinetic solubility amounted to 110 µM. Besides, in data set [2], the “CHI logD” value is given as 3.1. In addition, in the data set with plaque psoriasis, the “systemic side effects observed” value was “lymphopenia and transient bradycardia”.
Consider `CCCCCCCCc1ccc(CCC(N)(CO)CO)cc1` [fingolimod], for which, in data set [3], the “number of Langerhans cells migrating to the lymph node” value was “reduction”.
